Experiments:
[1] = in vivo; cited from earlier work
[2] = tested on: sensitive bacterial strains; conditions: cited from earlier work
[3] = tested on: dopamine metabolites HVA and DOPAC in the brain; assay: Example 1: brain dopamine metabolites (HVA, DOPAC) in adrenalectomized rats with corticosterone or placebo pellets; type: in vivo, rat; conditions: vehicle (placebo) pellet animals; haloperidol 1 mg/kg s.c. or clozapine 15 mg/kg s.c. two hours prior to sacrifice
Experimental: The implanted pellets contained either 100 mg corticosterone (for haloperidol experiments), 50 mg corticosterone (for clozapine experiments) or placebo. Two hours prior to sacrifice the animals were injected with either haloperidol (1 mg/kg s.c; RBI Natick, Mass.) or an equivalent volume of vehicle (0.3% tartaric acid, pH 5.3) or with either clozapine (15 mg/kg s.c.; RBI, Natick, Mass.) or vehicle (0.9% saline plus 0.8% acetic acid).
Animals were sacrificed by decapitation during the first four hours of the light cycle, blood collected and brains removed and frozen on dry ice and stored at −80° C. Corticosterone was measured in plasma by radioimmunoassay (ICN Biochem, Costa Mesa, Calif.) to confirm adrenalectomy and corticosterone replacement. […] Brain regions were dissected within 24-72 hours of slicing. Tissue was placed in 0.1 M perchloric acid with 0.1 mM EDTA and stored for no longer than 2 weeks at −80° C.
Dopamine metabolites homovanillic acid (HVA) and dihydroxyphenylacetic acid (DOPAC) were measured in the brains of the experimental animals. Samples were thawed, homogenized by sonication in 0.1 M perchloric acid/0.1 mM EDTA, and centrifuged for 2 minutes. Tissue pellets were dissolved in 1.0 N NaOH for protein determination (Bio-Rad, Richmond, Calif.). […] DOPAC and HVA were detected using an electrochemical detector. […]

[4] = tested on: blood-brain barrier (BBB) permeability; assay: Example 6: brain adriamycin concentration in rats given mifepristone or placebo; type: in vivo, rat; conditions: mifepristone 2 mg s.c. four hours prior to sacrifice; adriamycin 0.5 mg i.v.
Experimental: Animal sacrifice is by decapitation during the first four hours of the light cycle. Blood is collected and brains removed and frozen on dry ice for storage at −80° C. Adriamycin concentration is measured in the brains of the experimental animals.

[5] = tested on: blood-brain barrier (BBB) permeability; assay: Example 5: brain methotrexate concentration in rats given mifepristone or placebo; type: in vivo, rat; conditions: mifepristone 200 mg 10 day sustained-release pellet; methotrexate 0.5 mg i.v.
Experimental: Animal sacrifice is by decapitation during the first four hours of the light cycle. Blood is collected and brains removed and-frozen on dry ice for storage at −80° C. Methotrexate concentration is measured in the brains of the experimental animals.

[6] = tested on: blood-brain barrier (BBB) permeability; assay: Example 4: brain ampicillin concentration in rats given mifepristone or placebo; type: in vivo, rat; conditions: mifepristone 200 mg 10-day sustained release pellet; ampicillin 1.5 mg i.v.
Experimental: Animal sacrifice is by decapitation during the first four hours of the light cycle. Blood is collected and brains removed and frozen on dry ice for storage at −80° C. Ampicillin concentration is measured in the brains of the experimental animals.

[7] = tested on: dopamine metabolites HVA and DOPAC in the brain; assay: Example 2: brain dopamine metabolites (HVA, DOPAC) in rats given mifepristone or placebo pellet; type: in vivo, rat; conditions: mifepristone 200 mg 10-day sustained-release pellet
Experimental: Rats (male Sprague Dawley 175-200 grams) are maintained, 3 rats per cage, under controlled temperature and lighting (12 hours light/12 hours dark) with food and water ad libitum. […] Two hours prior to sacrifice the animals are injected with either haloperidol (1 mg/kg s.c; […] RBI, Natick, Mass.) or vehicle (0.9% saline plus 0.8% acetic acid). Animal sacrifice is by decapitation during the first four hours of the light cycle. Blood is collected and brains removed and frozen on dry ice for storage at −80° C. Frozen brains are sliced into 250 μm sections with a cryostat. The medial prefrontal cortex (AP 13.7 to 12.2 mm) is dissected with a scalpel, the striatum (AP 10.7 to 9.7 mm) is removed with stainless steel cannulae from frozen slices and the core and shell of the nucleus accumbens (AP 10.7 to 9.7 mm) is removed. Brain regions are dissected within 24-72 hours of slicing. […] Dopamine metabolites homovanillic acid (HVA) and dihydroxyphenylacetic acid (DOPAC) are measured in the brains of the experimental animals. […] DOPAC and HVA were detected using an electrochemical detector. […] Brain clozapine levels are analyzed by National Medical Services, Inc. (Willow Grove, PN) while brain and plasma haloperidol and reduced haloperidol and plasma clozapine levels are analyzed by Analytical Psychopharmacology Laboratories (Nathan Kline Institute, Orangeburg, N.Y.), both by gas chromotography.

[8] = tested on: blood-brain barrier (BBB) permeability; assay: Example 2: brain haloperidol and clozapine levels in rats given mifepristone or placebo pellet; type: in vivo, rat; conditions: mifepristone 200 mg 10-day sustained-release pellet
Experimental: Animal sacrifice is by decapitation during the first four hours of the light cycle. Blood is collected and brains removed and frozen on dry ice for storage at −80° C.

[9] = tested on: blood-brain barrier (BBB) permeability; assay: Example 3: brain Amphotericin B concentration in rats given mifepristone or placebo; type: in vivo, rat; conditions: mifepristone 200 mg 10-day sustained release pellet; Amphotericin B 0.1 mg i.v.
Experimental: Animal sacrifice is by decapitation during the first four hours of the light cycle. Blood is collected and brains removed and frozen on dry ice for storage at −80° C. Amphotericin B concentration is measured in the brains of the experimental animals.

Nc1nc2c(ncn2COCCO)c(=O)[nH]1 [Acyclovir, acyclovir]
concentrations achieved in the CNS as share of those achieved in plasma [1]: 30-50%

O=C(N[C@H](CO)[C@H](O)c1ccc([N+](=O)[O-])cc1)C(Cl)Cl [Chloramphenicol, chloramphenicol]
concentration effective against sensitive bacterial strains [2]: ≤ 8 µg/mL

O=C(CCCN1CCC(O)(c2ccc(Cl)cc2)CC1)c1ccc(F)cc1 [haloperidol]
levels of HVA and DOPAC in the brain [3]: elevated

CC#C[C@]1(O)CC[C@H]2[C@@H]3CCC4=CC(=O)CCC4=C3[C@@H](c3ccc(N(C)C)cc3)C[C@@]21C [mifepristone, (11,17)-11-[4-(dimethylmino)phenyl]-17-hydroxy-17-(1-propynyl)estra-4,9-dien-3-one]
brain adriamycin concentration, mifepristone-treated vs placebo [4]: greater | brain methotrexate concentration, mifepristone-treated vs placebo [5]: greater | brain ampicillin concentration, mifepristone-treated vs placebo [6]: greater | increase in brain dopamine metabolite levels following clozapine, mifepristone-treated vs placebo ([7]; clozapine 15 mg/kg s.c.): greater | increase in brain dopamine metabolite levels following haloperidol, mifepristone-treated vs placebo ([7]; haloperidol 1 mg/kg s.c.): greater | brain concentration of clozapine, mifepristone-treated vs placebo ([8]; clozapine 15 mg/kg s.c.): greater | brain concentration of haloperidol, mifepristone-treated vs placebo ([8]; haloperidol 1 mg/kg s.c.): greater | brain Amphotericin B concentration, mifepristone-treated vs placebo [9]: greater

Source: patent US20050124533A1, “Glucocorticoid blocking agents for increasing blood-brain barrier permeability stan-261con” (priority 2002, published 2005)
